Columns and labels:
E. coli LeuRS = E. coli LeuRS (Escherichia coli, UniProt P07813); details: in vitro; cited from earlier work
E. coli = experiment: growth and Nal incorporation of E. coli expression host with added AZL; format: cell-based; details: AZL added to the medium
Method: Incomplete occupancy of the UUG codon by Nal is due at least in part to competition with leucine-charged E. coli tRNA^LeuS. In an attempt to reduce competition by E. coli tRNA^LeuS, use of a mutant E. coli strain lacking tRNA^LeuCAA and addition of an E. coli leucyl-tRNA synthetase (LeuRS) inhibitor were tested. A Phe/Leu double auxotrophic strain derived from the tRNA^LeuCAA-deficient strain XA106 (CGSC at Yale) was tested for incorporation of Nal at the UUG codon.
Peptide 5UUG/UUG (residues 26-35, […], SEQ ID NO: 8) contains two Leu residues encoded as UUG. Upon addition of Nal, the masses of these fragments shift in accord with the mass difference between Nal and Leu. Only Nal (a), Nal and 1 mM AZL (b) were supplemented into the media.

[1] = cited from earlier work; for pKa (second of two pKa's): higher of the two pKa's of the side-chain moiety; for pKa (first of two pKa's): lower of the two pKa's of the side-chain moiety
[2] = target: leucine zipper c-MYC-MAX heterodimer (Homo sapiens, UniProt P01106+P61244); details: histidine at the center of c-MYC-MAX leucine zipper; cited from earlier work
[3] = target: mu-yPheRS (modified yeast PheRS, Thr415Gly) (Saccharomyces cerevisiae, UniProt P15625, T415G); details: Nal versus Phe
Method: The modified yeast PheRS (mu-yPheRS) was prepared by introduction of a Thr415Gly mutation in the α-subunit of the synthetase (Datta et al., J. Am. Chem. Soc. 124: 5652, 2002). The kinetics of activation of Nal and Phe by mu-yPheRS were analyzed in vitro via the pyrophosphate exchange assay.

Chain of E. coli LeuRS (P07813 whole entry): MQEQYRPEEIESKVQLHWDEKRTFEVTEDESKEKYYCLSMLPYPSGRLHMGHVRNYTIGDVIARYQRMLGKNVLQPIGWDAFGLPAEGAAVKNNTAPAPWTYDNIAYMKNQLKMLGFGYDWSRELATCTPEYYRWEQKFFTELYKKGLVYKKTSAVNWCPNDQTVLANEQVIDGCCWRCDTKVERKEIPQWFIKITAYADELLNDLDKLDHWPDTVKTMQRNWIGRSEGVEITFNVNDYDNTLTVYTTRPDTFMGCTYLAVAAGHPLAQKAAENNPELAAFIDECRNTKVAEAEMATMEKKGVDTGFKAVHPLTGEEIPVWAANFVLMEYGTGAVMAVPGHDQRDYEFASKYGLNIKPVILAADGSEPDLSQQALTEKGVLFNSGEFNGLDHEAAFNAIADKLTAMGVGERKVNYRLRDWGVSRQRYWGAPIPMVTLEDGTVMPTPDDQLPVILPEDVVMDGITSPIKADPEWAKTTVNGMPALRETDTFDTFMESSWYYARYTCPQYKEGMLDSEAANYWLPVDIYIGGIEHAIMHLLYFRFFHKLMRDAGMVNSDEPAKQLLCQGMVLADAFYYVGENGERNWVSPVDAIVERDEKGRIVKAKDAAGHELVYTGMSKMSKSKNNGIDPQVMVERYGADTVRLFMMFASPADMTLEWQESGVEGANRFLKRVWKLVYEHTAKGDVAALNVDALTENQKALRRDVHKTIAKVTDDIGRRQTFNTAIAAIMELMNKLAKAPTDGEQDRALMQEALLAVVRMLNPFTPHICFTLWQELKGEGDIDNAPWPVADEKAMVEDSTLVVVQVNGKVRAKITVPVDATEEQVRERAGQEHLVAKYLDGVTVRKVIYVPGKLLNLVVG
Chain of mu-yPheRS (modified yeast PheRS, Thr415Gly) (P15625 whole entry T415G): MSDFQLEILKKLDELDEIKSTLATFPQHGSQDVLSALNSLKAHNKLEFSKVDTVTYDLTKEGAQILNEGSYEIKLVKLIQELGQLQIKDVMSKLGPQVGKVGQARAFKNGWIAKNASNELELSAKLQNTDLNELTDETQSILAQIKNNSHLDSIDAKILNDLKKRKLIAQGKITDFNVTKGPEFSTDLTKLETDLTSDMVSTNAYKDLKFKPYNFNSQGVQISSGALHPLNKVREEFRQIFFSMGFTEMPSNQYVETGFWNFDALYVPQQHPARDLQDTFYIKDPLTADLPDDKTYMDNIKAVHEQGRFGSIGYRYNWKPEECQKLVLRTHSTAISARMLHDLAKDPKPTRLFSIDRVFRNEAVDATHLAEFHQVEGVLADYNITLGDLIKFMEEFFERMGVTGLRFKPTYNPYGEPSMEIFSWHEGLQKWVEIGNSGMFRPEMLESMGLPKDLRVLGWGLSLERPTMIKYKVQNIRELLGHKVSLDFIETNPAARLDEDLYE
Chain of mu-yPheRS (modified yeast PheRS, Thr415Gly) (P15624 whole entry, further chain): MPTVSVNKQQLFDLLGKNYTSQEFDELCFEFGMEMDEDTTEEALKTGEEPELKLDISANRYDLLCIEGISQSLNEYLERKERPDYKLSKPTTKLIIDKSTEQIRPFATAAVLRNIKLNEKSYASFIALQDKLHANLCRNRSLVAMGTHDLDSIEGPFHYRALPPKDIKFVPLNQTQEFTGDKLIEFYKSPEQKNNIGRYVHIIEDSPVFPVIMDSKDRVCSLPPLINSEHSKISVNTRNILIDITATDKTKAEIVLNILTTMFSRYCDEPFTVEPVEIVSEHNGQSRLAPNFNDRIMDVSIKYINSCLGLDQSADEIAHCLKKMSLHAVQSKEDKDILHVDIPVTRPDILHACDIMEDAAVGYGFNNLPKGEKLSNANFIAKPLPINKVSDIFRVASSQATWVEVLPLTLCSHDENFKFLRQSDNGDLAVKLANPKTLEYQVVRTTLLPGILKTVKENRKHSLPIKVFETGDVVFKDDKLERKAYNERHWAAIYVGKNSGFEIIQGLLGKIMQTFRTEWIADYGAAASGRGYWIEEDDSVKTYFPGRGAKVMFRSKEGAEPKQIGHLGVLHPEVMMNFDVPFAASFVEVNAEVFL
Chain of leucine zipper c-MYC-MAX heterodimer (P01106 428-449 limits assumed): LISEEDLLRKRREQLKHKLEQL
Chain of leucine zipper c-MYC-MAX heterodimer (P61244 81-102 limits assumed): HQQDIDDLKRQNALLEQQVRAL

SMILES: CN(C)CC(N)C(=O)O (racemic) [AZL, 4-Aza-DL-leucine]
- inhibition of E. coli LeuRS (E. coli LeuRS): competitive inhibitor
- growth rate of the host (E. coli): reduced the growth rate
- occupancy of the UUG codon by Nal (E. coli; mDHFR expression): enhanced occupancy

SMILES: N[C@@H](Cc1c[nH]c(F)n1)C(=O)O [2-fluoro-histidine]
- pKa (second of two pKa's) [1]: 11.5
- pKa (first of two pKa's) [1]: 4.0

SMILES: N[C@@H](Cc1c[nH]cn1)C(=O)O [histidine]
- histidine pKa, experimental value [2]: 7.19
- pKa (second of two pKa's) [1]: 14.52
- pKa (first of two pKa's) [1]: 7.05

SMILES: N[C@@H](Cc1ccc2ccccc2c1)C(=O)O [Nal, L-3-(2-naphthyl)alanine]
- kcat/KM relative to that for Phe [3]: 8 fold

Source: patent US20050260711A1, “Modulating pH-sensitive binding using non-natural amino acids” (priority 2004, published 2005)
